Values of other authors, collected in patent US20180228837A1, “STABLE IODINE SOLUTIONS WITH MEDICAL APPLICATIONS” (priority 2017, published 2018).
Like-named read-outs stand apart in the source and are kept apart here.

Key:
ischemic open wounds = ischemic open wounds in rats; compared with vehicle alone or untreated wounds
[1] = system: wound chambers and full thickness wounds; conditions: rats; injected in one area of the body, healing at distant areas
[2] = system: wound chambers and full thickness wounds; conditions: mice; injected in one area of the body, healing at distant areas
dermal wounds = dermal wounds of rabbits
wounds = conditions: diabetic rats; collagen membrane material
[3] = system: wound chambers and full thickness wounds; conditions: pigs; injected in one area of the body, healing at distant areas

copper complex of a glycyl-L-histidyl-L-lysine peptide [GHK-Cu]
concentration of metalloproteinases 2 and 9 and of TNF-beta (ischemic open wounds): decreased | wound healing (ischemic open wounds): healed faster | systemic enhancement of healing [1]: induce a systemic enhancement of healing | systemic enhancement of healing [2]: induce a systemic enhancement of healing | wound healing (dermal wounds): facilitated wound healing | wound contraction and epithelization (wounds): faster wound contraction and epithelization | systemic enhancement of healing [3]: induce a systemic enhancement of healing
